Experimental data taken from patent US8691865B2 (AbbVie Inc., priority 2008, dated 2014).
Where two headings read alike, the source gives them in different places.

How the values were obtained:
[1] = target: human Cav2.2 (Homo sapiens, UniProt Q00975); assay: Assessment of calcium channel activity using FLIPR (Ca2+ influx in IMR32 cells); assay type: cell-based
Outline: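 Human neuroblastoma IMR32 cells were seeded at 1−1.2×10^5 cells/well and cultured 48 h at 37 °C before FLIPR calcium influx measurement. Percent inhibition at each concentration was calculated against the no-inhibitor signal, and IC50 came from sigmoidal dose-response fits.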

[2] = system: Sprague Dawley rats; assay: Analgesic effect against neuropathic pain, Bennett model (chronic constriction injury); assay type: in vivo; conditions: Rattus norvegicus, 1 h; 30 mg/kg po; mechanical allodynia 60 minutes after administration; CCI rats; read-out: % MPE
Procedure: (iii) In Vivo Data—Determination of Analgesic Effect Against Neuropathic Pain—Bennett Model
Animals were prepared for testing, by use of a surgical procedure that induces neuropathic pain in one paw. IACUC guidelines for rodent survival surgery are followed. All surgical procedures are conducted on a clean, uncluttered surgical station. The area is wiped with a 70% ethanol solution before and after use. All instruments are sterilized by either autoclave or chemical sterilant (such as 2% glutaraldehyde >10 hr). Surgeons wear sterile gloves (for the initial procedure), clean lab coat or scrubs, hairnet or cap, and a half-mask respirator (when not working under a hood). Surgeons thoroughly wash their hands prior to donning sterile gloves. Gloves are disinfected in-between animals by cleansing with povidone iodine, chlorhexidine or 70% alcohol for at least 30 seconds. If multiple surgeries are performed, the instruments are cleaned and sterilized between procedures with hot glass beads (>10 seconds). To prevent thermal or chemical burns, the instruments are cooled by rinsing in sterile saline before use.
To minimize post-operative dehydration/maintain blood volume during the surgery, warmed sterile saline or Lactate Ringers solution at 10-15 mL/kg is administered subcutaneously immediately before or after surgery. This facilitates better renal function and presumably anesthesia product excretion post surgery. For all surgical procedures, anesthesia is induced with 4-5% isoflurane. Anesthesia is be maintained during surgery with 1-3% isoflurane. Following induction, the surgical site is carefully shaved and the exposed area is aseptically prepared with povidone-iodine scrub solution and 70% ethanol 2-3 times.
After site sterilization and anesthetic procedures outline above are completed, a 1.5 cm incision is made at the mid-thigh level to expose the biceps femoris and gluteous superficialis (right side), which are then separated by blunt dissection. The common sciatic nerve is exposed, isolated, and loosely ligated by four 5-0 chromic gut ligatures with <1 mm spacing between each. The surgical site is closed in layers—muscle is closed with 6.0 absorbable sutures, and the skin closed with wound clips. Animals are allowed to recover on a warming plate and are returned to their home cages when fully ambulatory. Animals are not be used for testing until at least 10 days following surgery.
Filament strengths used are: 0.4, 0.6, 1.0, 2, 4, 6, 8, and 15 g. […] Filaments are applied perpendicular to the mid-plantar paw surface with enough force to cause slight buckling and held in place for 6-8 seconds. Positive responses include an abrupt withdrawal of the paw from the stimulus or flinching behavior immediately following removal of the stimulus. The maximum force applied will be 15 g. […] All compounds were orally administered in 10% dimethyl sulfoxide/polyethylene glycol at a volume of 2.0 mL/kg, and mechanical allodynia was determined 60 minutes following compound administration. Data are reported as log g values and the percentage of maximum possible effect (% MPE) is calculated using log g values with the formula: % MPE=(log [observed PWT in grams]−log [mean PWT vehicle])/(log [15]−log [mean PWT vehicle])*100 All statistical procedures are run on log g values.

[3] = system: Sprague Dawley rats; assay: Capsaicin induced secondary mechanical hyperalgesia model; assay type: in vivo; conditions: po, 1 h, read-out: % inhibition @ 30 mg/kg p.o.; 30 mg/kg p.o. 60 minutes before testing; SMH measured 180 minutes after capsaicin; rat
Procedure: (ii) In Vivo Data—Capsaicin Induced Secondary Mechanical Hyperalgesia Model:
Sprague Dawley rats were briefly restrained, and capsaicin was administered at 10 μg in 10 μL of vehicle by intraplantar injection into the center of the right hind paw. Secondary mechanical hyperalgesia (SMH) was measured at the heel away from the site of injection 180 minutes following capsaicin exposure. Compounds and gabapentin (positive control), were administered p.o. 60 minutes before testing (2 hours after capsaicin) or i.p. 30 minutes before testing (2.5 hours after capsaicin). SMH was measured using calibrated von Frey filaments (Stoelting, Woodale, Ill.). Following the 1 hour habituation in the testing room, rats were moved to individual plexiglass chambers that sit on top of a wire mesh to allow for access for stimulation of the plantar surface of the hind paws. Rats were allowed to acclimate to the new chambers for 15 minutes before the onset of testing. The paw withdrawal threshold was determined by increasing and decreasing stimulus intensity (force: g) and calculated using Dixon's up-down method (Chaplan, S. R.; Bach, F. W.; Pogrel, J. W.; Chung, J. M.; Yaksh, T. L.; J. Neuroscience Methods 1994, 53(1), 55-63.). The filaments (maximum force of 15.0 g) were held in place for 8 seconds or until there was a withdrawal response from the mechanical stimulation.

human Cav2.2, sequence (Q00975 whole entry): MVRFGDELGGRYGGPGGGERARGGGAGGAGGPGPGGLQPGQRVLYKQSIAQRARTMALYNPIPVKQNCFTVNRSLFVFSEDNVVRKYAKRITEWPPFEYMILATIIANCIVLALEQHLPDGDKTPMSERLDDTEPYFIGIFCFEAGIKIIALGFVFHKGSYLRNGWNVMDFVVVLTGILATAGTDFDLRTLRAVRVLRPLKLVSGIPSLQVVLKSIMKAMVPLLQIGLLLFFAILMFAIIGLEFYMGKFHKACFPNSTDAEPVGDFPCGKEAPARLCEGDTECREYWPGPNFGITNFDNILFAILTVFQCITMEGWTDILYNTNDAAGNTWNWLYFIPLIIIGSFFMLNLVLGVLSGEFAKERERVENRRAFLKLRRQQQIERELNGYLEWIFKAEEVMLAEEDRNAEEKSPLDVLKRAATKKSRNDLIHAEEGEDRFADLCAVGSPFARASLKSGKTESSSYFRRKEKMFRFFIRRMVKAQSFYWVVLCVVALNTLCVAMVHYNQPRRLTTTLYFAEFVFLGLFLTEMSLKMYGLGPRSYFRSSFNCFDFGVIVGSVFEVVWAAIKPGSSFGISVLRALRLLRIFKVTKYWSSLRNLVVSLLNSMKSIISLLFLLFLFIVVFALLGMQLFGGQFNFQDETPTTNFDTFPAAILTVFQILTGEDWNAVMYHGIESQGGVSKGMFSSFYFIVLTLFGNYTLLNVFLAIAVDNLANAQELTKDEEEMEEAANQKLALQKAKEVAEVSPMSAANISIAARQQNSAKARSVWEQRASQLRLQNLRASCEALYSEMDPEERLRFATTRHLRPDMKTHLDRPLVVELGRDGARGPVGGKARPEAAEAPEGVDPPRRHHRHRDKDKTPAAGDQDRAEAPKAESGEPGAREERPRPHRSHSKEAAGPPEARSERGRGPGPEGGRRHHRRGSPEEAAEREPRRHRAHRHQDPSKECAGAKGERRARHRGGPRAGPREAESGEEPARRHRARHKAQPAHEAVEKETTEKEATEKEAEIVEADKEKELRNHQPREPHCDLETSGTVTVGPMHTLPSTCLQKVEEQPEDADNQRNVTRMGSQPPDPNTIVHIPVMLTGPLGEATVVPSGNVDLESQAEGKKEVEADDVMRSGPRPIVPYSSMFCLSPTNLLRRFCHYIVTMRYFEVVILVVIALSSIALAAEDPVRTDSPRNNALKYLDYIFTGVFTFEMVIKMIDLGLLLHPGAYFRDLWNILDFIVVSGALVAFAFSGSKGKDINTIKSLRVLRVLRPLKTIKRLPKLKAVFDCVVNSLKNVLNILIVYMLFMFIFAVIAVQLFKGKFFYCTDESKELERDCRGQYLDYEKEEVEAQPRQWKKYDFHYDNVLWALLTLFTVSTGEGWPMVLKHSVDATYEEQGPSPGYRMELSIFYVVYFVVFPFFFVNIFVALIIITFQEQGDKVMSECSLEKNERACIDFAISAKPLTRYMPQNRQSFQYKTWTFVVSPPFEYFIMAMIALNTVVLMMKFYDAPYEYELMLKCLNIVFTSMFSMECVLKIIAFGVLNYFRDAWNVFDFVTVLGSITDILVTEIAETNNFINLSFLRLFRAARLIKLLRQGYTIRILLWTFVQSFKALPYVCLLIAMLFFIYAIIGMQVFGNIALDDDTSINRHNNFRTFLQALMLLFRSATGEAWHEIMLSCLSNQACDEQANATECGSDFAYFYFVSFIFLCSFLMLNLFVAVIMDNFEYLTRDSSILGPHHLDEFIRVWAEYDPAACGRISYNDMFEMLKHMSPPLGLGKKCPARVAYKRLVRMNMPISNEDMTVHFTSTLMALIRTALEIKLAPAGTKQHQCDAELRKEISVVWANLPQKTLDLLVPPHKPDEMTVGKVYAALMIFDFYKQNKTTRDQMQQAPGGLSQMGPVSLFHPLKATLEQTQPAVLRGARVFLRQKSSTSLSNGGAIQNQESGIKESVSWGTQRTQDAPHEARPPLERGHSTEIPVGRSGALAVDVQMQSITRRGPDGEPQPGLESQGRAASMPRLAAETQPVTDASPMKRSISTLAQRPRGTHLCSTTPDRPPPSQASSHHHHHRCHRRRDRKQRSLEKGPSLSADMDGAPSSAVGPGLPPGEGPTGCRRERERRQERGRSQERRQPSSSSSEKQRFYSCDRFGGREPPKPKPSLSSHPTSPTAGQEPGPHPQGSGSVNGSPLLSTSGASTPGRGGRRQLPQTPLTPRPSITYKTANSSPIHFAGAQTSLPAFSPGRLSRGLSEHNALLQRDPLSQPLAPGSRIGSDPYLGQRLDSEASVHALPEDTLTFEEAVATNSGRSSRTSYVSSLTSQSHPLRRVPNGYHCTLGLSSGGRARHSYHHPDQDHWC
human Cav2.2, sequence (P54289 25-956 partner limits assumed): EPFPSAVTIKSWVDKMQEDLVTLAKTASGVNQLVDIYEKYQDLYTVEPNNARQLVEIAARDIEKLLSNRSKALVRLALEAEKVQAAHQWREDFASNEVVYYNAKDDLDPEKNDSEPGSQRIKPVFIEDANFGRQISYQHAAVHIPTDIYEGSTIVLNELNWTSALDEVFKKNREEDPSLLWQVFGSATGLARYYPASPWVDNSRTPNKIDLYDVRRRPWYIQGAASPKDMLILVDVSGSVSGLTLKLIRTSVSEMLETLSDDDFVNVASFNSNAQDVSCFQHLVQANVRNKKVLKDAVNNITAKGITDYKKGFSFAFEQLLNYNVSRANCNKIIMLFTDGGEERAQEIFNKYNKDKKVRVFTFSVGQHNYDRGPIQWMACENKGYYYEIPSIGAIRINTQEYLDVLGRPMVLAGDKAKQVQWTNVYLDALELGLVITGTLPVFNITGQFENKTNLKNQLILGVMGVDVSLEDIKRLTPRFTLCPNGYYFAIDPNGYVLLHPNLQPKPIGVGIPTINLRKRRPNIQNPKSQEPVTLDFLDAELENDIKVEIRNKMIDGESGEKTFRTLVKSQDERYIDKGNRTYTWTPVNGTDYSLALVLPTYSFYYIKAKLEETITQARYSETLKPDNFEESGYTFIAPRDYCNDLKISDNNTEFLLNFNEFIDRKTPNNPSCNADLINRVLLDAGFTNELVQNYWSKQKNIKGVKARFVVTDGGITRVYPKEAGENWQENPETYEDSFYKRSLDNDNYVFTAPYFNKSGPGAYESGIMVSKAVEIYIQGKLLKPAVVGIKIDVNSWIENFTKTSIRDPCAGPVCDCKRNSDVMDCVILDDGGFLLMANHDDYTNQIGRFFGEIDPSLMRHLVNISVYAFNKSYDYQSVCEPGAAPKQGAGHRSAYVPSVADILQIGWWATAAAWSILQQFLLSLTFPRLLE
human Cav2.2, sequence (P54289 957-1103 partner limits assumed): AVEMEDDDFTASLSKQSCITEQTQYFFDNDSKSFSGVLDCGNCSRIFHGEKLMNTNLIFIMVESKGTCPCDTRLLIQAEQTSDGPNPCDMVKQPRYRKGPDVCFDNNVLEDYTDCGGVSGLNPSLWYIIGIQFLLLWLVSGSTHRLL
human Cav2.2, sequence (P54284 whole entry partner): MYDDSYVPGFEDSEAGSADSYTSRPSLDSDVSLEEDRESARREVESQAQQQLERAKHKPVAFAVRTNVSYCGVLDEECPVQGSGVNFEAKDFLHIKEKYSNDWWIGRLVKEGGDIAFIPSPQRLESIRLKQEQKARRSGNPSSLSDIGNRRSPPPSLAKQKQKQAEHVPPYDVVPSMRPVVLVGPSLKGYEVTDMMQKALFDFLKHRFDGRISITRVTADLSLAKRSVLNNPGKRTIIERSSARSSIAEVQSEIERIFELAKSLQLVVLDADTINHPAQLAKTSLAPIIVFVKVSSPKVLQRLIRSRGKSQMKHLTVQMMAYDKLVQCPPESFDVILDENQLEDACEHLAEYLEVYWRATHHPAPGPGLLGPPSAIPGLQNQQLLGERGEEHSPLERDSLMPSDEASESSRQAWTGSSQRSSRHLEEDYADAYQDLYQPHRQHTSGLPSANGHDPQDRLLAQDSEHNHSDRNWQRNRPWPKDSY

| IC50 [1] [µM] | IC50 ([1]; read-out: IC50 (μM) or percent inhibition (* indicates 3 minute incubation, otherwise 60 minute), IC50, 60 minute pre-incubation with compound, IMR32 cells, 80 mM KCl depolarization) [µM] | SMILES | inhibition in vivo at 30 mg/kg [2] [%] | inhibition in vivo at 30 mg/kg [3] [%] |
| --- | --- | --- | --- | --- |
| 1.42 | – | CN[C@@H](CC(C)C)C(=O)N[C@H]1CC[C@@H]2CN(c3cccc(OC(F)(F)F)c3)C[C@@H]21 [Example 625, N^2-methyl-N-{(3aR,4S,6aS)-2-[3-(trifluoromethoxy)phenyl]octahydrocyclopenta[c]pyrrol-4-yl}-L-leucinamide] | 42 | – |
| 2.71 | – | O=C(N[C@H]1CC[C@@H]2CN(c3cccc(OC(F)(F)F)c3)C[C@@H]21)[C@@H]1C[C@@H](F)CN1 [Example 627, (4R)-4-fluoro-N-{(3aR,4S,6aS)-2-[3-(trifluoromethoxy)phenyl]octahydrocyclopenta[c]pyrrol-4-yl}-L-prolinamide] | 54 | – |
| 4.5 | – | O=C(N[C@H]1CC[C@@H]2CN(c3cccc(C(F)(F)F)n3)C[C@@H]21)[C@@H]1C[C@@H](F)CN1 [Example 592, (4R)-4-fluoro-N-{(3aR,4S,6aS)-2-[6-(trifluoromethyl)pyridin-2-yl]octahydrocyclopenta[c]pyrrol-4-yl}-L-prolinamide] | – | 54 |
| 1.08 | – | CN[C@@H](CC(C)C)C(=O)N[C@H]1CC[C@@H]2CN(c3cccc(C(F)F)c3)C[C@@H]21 [Example 729, N-{(3aR,4S,6aS)-2-[3-(difluoromethyl)phenyl]octahydrocyclopenta[c]pyrrol-4-yl}-N^2-methyl-L-leucinamide] | 85 | – |
| 1.88 | – | CC(C)(C)[C@H](O)C(=O)N[C@H]1CC[C@@H]2CN(c3cccc(C(F)(F)F)n3)C[C@@H]21 [Example 580, (2S)-2-hydroxy-3,3-dimethyl-N-{(3aR,4S,6aS)-2-[6-(trifluoromethyl)pyridin-2-yl]octahydrocyclopenta[c]pyrrol-4-yl}butanamide] | 5 | – |
| 0.91 | – | Fc1ccc2[nH]c(CN[C@H]3CC[C@@H]4CN(c5cccc(C(F)(F)F)n5)C[C@@H]43)cc2c1 [Example 613, (3aR,4S,6aS)-N-[(5-fluoro-1H-indol-2-yl)methyl]-2-[6-(trifluoromethyl)pyridin-2-yl]octahydrocyclopenta[c]pyrrol-4-amine] | 61 | – |
| 2.53 | – | CN[C@@H](CC(C)C)C(=O)N[C@H]1CC[C@@H]2CN(c3nccc(C(F)(F)F)n3)C[C@@H]21 [Example 722, N^2-methyl-N-{(3aR,4S,6aS)-2-[4-(trifluoromethyl)pyrimidin-2-yl]octahydrocyclopenta[c]pyrrol-4-yl}-L-leucinamide] | 8 | – |
| 1.3 | – | CCC[C@H](NC)C(=O)N[C@H]1CC[C@@H]2CN(c3cccc(OC(F)(F)F)c3)C[C@@H]21 [Example 718, N^2-methyl-N-{(3aR,4S,6aS)-2-[3-(trifluoromethoxy)phenyl]octahydrocyclopenta[c]pyrrol-4-yl}-L-norvalinamide] | 29 | – |
| 1.68 | – | O=C(N[C@H]1CC[C@@H]2CN(c3cccc(C(F)(F)F)n3)C[C@@H]21)C1(O)CCCC1 [Example 573, 1-hydroxy-N-{(3aR,4S,6aS)-2-[6-(trifluoromethyl)pyridin-2-yl]octahydrocyclopenta[c]pyrrol-4-yl}cyclopentanecarboxamide] | – | 57 |
| 2.57 | – | O=C(N[C@H]1CC[C@@H]2CN(c3cccc(C(F)(F)F)n3)C[C@@H]21)[C@@H]1CCCN1 [Example 598, N-{(3aR,4S,6aS)-2-[6-(trifluoromethyl)pyridin-2-yl]octahydrocyclopenta[c]pyrrol-4-yl}-L-prolinamide] | – | 54 |
| 0.52 | – | O=C(N[C@H]1CC[C@@H]2CN(c3cccc(C(F)(F)F)n3)C[C@@H]21)[C@@H]1C[C@@H]2CCCC[C@@H]2N1 [Example 593, (2S,3aS,7aS)-N-{(3aR,4S,6aS)-2-[6-(trifluoromethyl)pyridin-2-yl]octahydrocyclopenta[c]pyrrol-4-yl}octahydro-1H-indole-2-carboxamide] | – | 76 |
| 0.39 | – | CN[C@@H](CC(C)(C)C)C(=O)N[C@H]1CC[C@@H]2CN(c3cccc(C(F)(F)F)n3)C[C@@H]21 [Example 587, N^2,4-dimethyl-N-{(3aR,4S,6aS)-2-[6-(trifluoromethyl)pyridin-2-yl]octahydrocyclopenta[c]pyrrol-4-yl}-L-leucinamide] | – | 16 |
| 2.85 | – | CN[C@@H](CC(C)C)C(=O)N[C@@H]1CC[C@H]2CN(c3ccc(OC(F)(F)F)cc3)C[C@H]21 [Example 739, N^2-methyl-N-{(3aS,4R,6aR)-2-[4-(trifluoromethoxy)phenyl]octahydrocyclopenta[c]pyrrol-4-yl}-L-leucinamide] | 63 | – |
| 4.43 | – | CCC[C@H](NC)C(=O)N[C@H]1CC[C@@H]2CN(c3ccc(C(F)(F)F)cn3)C[C@@H]21 [Example 599, N^2-methyl-N-{(3aR,4S,6aS)-2-[5-(trifluoromethyl)pyridin-2-yl]octahydrocyclopenta[c]pyrrol-4-yl}-L-norvalinamide] | – | 32 |
| 1.3 | – | O=C(N[C@H]1CC[C@@H]2CN(c3cccc(C(F)(F)F)n3)C[C@@H]21)[C@@H]1CCCCN1 [Example 597, (2S)-N-{(3aR,4S,6aS)-2-[6-(trifluoromethyl)pyridin-2-yl]octahydrocyclopenta[c]pyrrol-4-yl}piperidine-2-carboxamide] | – | 54 |
| 4.91 | – | CN[C@@H](CC(C)C)C(=O)N[C@H]1CC[C@@H]2CN(c3ccc(OC(F)(F)F)cc3)C[C@@H]21 [Example 624, N^2-methyl-N-{(3aR,4S,6aS)-2-[4-(trifluoromethoxy)phenyl]octahydrocyclopenta[c]pyrrol-4-yl}-L-leucinamide] | 85 | – |
| 3.62 | – | CN[C@@H](CC(C)C)C(=O)N[C@H]1CC[C@@H]2CN(c3ccc(C(F)(F)F)nc3)C[C@@H]21 [Example 735, N^2-methyl-N-{(3aR,4S,6aS)-2-[6-(trifluoromethyl)pyridin-3-yl]octahydrocyclopenta[c]pyrrol-4-yl}-L-leucinamide] | 60 | – |
| 1.65 | – | CN[C@@H](CC(C)C)C(=O)N[C@H]1CC[C@@H]2CN(c3ccc(C(F)(F)F)cc3)C[C@@H]21 [Example 608, N^2-methyl-N-{(3aR,4S,6aS)-2-[4-(trifluoromethyl)phenyl]octahydrocyclopenta[c]pyrrol-4-yl}-L-leucinamide] | 79 | – |
| – | 3.26 | Cc1cccc(C)c1CN1C[C@H]2CC[C@H](NC(=O)C(c3ccccc3)C(C)C)[C@H]2C1 (stereo partly drawn) [Example 93, N-[(3aR,4S,6aS)-2-(2,6-dimethylbenzyl)octahydrocyclopenta[c]pyrrol-4-yl]-3-methyl-2-phenylbutanamide] | – | – |
